Experimental data from the kinase profiling compilation of Christmann-Franck et al. (2016).

How the values were obtained:
Assay in all cases: radiometric filter-binding kinase assay
[1] = system: AKT1 (human), P31749 [S473D]
AURKA (human) = AURKA (human) (UniProt O14965)
BRSK1 (human) = BRSK1 (human) (UniProt Q8TDC3)
DYRK2 (human) = DYRK2 (human) (UniProt Q92630)
EEF2K (human) = EEF2K (human) (UniProt O00418)
EPHA2 (human) = EPHA2 (human) (UniProt P29317)
EPHB3 (human) = EPHB3 (human) (UniProt P54753)
ERBB4 (human) = ERBB4 (human) (UniProt Q15303)
GSK3B (human) = GSK3B (human) (UniProt P49841)
HIPK3 (human) = HIPK3 (human) (UniProt Q9H422)
INSR (human) = INSR (human) (UniProt P06213)
IRAK4 (human) = IRAK4 (human) (UniProt Q9NWZ3)
MAP2K2 (human) = MAP2K2 (human) (UniProt P36507)
Chain of MAP2K2 (human) (P36507 whole entry, looked up): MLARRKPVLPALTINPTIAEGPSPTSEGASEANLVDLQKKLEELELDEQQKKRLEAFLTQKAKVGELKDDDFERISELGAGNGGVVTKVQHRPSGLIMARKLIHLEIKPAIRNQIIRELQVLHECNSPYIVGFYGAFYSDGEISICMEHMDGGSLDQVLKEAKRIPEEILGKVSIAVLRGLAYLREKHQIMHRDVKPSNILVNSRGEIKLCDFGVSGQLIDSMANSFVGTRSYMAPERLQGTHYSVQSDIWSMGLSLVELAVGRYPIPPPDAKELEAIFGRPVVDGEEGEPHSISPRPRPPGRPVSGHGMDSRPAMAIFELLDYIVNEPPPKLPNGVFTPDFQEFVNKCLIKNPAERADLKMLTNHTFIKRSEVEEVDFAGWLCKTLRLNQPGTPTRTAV

MAP2K6 (human) = MAP2K6 (human) (UniProt P52564)
MAP3K1 (human) = MAP3K1 (human) (UniProt Q13233)
MAP3K11 (human) = MAP3K11 (human) (UniProt Q16584)
MAP3K5 (human) = MAP3K5 (human) (UniProt Q99683)
Chain of MAP3K5 (human) (Q99683 whole entry, looked up): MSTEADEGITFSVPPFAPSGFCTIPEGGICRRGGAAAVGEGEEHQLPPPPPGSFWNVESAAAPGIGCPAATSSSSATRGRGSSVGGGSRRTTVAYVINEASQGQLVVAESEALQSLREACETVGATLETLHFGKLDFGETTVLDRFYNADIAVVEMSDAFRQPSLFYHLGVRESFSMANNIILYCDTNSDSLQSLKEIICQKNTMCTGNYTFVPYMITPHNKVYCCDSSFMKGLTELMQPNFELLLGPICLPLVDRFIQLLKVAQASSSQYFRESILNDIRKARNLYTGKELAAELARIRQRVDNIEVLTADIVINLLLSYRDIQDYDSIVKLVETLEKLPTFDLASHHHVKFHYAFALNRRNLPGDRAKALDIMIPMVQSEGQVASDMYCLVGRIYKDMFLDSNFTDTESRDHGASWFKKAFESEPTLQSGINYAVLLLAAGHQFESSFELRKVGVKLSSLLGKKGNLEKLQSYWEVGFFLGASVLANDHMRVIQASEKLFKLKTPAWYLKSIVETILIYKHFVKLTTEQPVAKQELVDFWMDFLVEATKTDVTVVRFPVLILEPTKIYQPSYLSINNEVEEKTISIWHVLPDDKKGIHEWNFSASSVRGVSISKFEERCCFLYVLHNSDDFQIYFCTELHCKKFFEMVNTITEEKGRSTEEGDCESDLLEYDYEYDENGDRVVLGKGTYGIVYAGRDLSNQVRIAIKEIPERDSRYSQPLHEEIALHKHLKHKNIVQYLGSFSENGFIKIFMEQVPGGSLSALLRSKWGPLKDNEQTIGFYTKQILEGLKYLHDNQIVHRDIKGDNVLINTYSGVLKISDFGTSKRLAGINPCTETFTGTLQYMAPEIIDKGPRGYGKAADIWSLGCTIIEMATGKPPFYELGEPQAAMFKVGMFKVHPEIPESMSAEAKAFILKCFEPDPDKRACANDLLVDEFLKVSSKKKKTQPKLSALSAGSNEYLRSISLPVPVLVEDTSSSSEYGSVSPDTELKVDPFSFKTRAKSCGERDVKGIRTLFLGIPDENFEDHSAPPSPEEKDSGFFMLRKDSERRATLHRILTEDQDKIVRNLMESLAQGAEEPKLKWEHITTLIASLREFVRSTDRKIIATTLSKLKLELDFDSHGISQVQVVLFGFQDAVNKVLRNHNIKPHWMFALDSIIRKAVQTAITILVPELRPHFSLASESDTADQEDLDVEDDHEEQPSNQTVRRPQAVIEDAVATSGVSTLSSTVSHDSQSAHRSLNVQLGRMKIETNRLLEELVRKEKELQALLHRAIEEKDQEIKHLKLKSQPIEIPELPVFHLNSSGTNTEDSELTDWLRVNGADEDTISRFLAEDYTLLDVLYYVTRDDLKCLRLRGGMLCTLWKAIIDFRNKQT

MAP3K7 TAB1 (human) = MAP3K7 TAB1 (human) (UniProt Q15750+O43318)
MAP3K9 (human) = MAP3K9 (human) (UniProt P80192)
MAPK12 (human) = MAPK12 (human) (UniProt P53778)
MAPK9 (human) = MAPK9 (human) (UniProt P45984)
MAPKAPK2 (human) = MAPKAPK2 (human) (UniProt P49137)
Chain of MAPKAPK2 (human) (P49137 whole entry, looked up): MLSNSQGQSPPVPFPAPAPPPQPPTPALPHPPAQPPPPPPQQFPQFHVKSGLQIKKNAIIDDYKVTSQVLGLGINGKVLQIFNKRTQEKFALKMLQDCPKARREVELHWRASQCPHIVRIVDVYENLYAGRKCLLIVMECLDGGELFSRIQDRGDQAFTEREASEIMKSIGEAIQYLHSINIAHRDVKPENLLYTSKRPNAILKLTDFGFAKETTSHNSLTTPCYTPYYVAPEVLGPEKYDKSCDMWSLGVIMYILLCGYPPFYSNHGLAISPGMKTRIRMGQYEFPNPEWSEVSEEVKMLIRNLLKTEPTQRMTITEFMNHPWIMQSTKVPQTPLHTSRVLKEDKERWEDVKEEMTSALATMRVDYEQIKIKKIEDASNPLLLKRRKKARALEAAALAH

MARK1 (human) = MARK1 (human) (UniProt Q9P0L2)
MARK2 (human) = MARK2 (human) (UniProt Q7KZI7)
MARK4 (human) = MARK4 (human) (UniProt Q96L34)
MELK (human) = MELK (human) (UniProt Q14680)
MST4 (human) = MST4 (human) (UniProt Q9P289)
Chain of MST4 (human) (Q9P289 whole entry, looked up): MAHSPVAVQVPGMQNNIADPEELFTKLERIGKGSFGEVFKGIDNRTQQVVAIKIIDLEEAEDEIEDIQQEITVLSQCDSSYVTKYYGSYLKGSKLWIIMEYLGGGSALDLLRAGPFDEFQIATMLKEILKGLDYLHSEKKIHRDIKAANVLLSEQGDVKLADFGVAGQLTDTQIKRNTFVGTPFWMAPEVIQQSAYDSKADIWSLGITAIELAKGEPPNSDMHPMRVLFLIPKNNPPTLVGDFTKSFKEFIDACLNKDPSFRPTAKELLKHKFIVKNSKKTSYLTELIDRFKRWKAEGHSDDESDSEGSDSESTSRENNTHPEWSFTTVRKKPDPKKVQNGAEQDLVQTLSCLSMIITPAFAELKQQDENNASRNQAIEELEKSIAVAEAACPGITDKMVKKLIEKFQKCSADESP

NTRK1 (human) = NTRK1 (human) (UniProt P04629)
NUAK1 (human) = NUAK1 (human) (UniProt O60285)
PAK4 (human) = PAK4 (human) (UniProt O96013)
PAK6 (human) = PAK6 (human) (UniProt Q9NQU5)
PIM1 (human) = PIM1 (human) (UniProt P11309)
PKN2 (human) = PKN2 (human) (UniProt Q16513)
Chain of PKN2 (human) (Q16513 whole entry, looked up): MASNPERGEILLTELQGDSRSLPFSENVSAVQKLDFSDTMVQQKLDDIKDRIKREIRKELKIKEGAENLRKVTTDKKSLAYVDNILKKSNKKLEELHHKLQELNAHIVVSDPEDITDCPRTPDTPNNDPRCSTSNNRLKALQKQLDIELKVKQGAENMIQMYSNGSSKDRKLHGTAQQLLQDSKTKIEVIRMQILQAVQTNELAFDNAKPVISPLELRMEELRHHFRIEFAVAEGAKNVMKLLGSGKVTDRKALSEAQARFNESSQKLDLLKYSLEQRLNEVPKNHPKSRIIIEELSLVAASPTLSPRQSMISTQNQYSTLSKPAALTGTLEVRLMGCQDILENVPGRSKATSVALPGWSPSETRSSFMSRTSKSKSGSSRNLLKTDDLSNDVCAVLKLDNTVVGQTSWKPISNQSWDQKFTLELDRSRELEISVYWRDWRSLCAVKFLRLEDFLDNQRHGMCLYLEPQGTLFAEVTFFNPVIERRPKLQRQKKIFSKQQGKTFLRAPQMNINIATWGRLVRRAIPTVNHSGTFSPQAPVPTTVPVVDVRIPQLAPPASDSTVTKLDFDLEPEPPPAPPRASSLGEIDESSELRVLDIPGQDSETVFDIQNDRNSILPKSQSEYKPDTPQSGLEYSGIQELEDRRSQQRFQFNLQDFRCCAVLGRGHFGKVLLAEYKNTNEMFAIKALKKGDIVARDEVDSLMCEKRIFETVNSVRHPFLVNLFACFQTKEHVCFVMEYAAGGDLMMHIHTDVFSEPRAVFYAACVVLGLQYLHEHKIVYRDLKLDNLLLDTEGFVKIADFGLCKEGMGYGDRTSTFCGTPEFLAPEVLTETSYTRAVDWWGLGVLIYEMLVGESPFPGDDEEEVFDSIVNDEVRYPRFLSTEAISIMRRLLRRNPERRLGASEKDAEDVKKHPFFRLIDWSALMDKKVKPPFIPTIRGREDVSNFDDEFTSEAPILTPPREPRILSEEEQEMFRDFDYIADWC

PRKCA (human) = PRKCA (human) (UniProt P17252)
PRKCZ (human) = PRKCZ (human) (UniProt Q05513)
[2] = target: STK11 CAB39 STRADA (human) (UniProt Q9Y376+Q7RTN6+Q15831)
Chain of STK11 CAB39 STRADA (human) (Q15831 whole entry, looked up): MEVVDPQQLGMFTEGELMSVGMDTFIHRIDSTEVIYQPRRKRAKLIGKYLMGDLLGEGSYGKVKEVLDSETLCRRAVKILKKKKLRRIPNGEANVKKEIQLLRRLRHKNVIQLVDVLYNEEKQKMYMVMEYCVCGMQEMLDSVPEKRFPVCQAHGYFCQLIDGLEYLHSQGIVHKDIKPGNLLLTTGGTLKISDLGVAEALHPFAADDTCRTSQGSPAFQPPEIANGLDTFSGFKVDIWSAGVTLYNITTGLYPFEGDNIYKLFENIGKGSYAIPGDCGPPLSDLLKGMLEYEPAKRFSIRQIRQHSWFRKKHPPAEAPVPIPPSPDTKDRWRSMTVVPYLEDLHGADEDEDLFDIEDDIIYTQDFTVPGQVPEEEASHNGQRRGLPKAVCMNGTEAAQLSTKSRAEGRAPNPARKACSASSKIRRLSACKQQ
Chain of STK11 CAB39 STRADA (human) (Q7RTN6 whole entry, looked up): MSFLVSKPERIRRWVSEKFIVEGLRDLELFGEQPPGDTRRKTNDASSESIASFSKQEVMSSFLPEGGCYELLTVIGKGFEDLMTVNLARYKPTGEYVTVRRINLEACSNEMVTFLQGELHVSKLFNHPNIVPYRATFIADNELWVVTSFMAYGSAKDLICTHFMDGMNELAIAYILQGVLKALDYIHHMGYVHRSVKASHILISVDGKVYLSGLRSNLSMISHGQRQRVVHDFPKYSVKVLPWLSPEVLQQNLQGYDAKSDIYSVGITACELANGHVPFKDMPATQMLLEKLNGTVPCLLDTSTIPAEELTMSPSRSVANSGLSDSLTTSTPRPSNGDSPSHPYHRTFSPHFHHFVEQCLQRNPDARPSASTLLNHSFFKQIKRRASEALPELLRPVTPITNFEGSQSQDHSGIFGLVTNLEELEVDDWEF
Chain of STK11 CAB39 STRADA (human) (Q9Y376 whole entry, looked up): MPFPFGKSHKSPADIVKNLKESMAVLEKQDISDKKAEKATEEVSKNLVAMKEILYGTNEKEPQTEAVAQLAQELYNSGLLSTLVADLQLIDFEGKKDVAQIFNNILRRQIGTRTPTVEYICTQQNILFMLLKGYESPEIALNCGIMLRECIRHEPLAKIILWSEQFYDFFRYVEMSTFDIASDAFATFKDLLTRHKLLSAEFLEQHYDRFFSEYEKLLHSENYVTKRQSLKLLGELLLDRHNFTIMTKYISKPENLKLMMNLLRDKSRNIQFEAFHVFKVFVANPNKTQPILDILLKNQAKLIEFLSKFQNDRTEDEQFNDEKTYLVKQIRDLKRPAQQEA

N#Cc1c(C2CCNCC2)cc(-c2c(O)cccc2OCC2CC2)nc1N
residual activity ([1]; compound 1.0 µM): 81% | residual activity ([1]; compound 10.0 µM): 63% | residual activity (AURKA (human); compound 1.0 µM): 111% | residual activity (AURKA (human); compound 10.0 µM): 91% | residual activity (BRSK1 (human); compound 1.0 µM): 107% | residual activity (BRSK1 (human); compound 10.0 µM): 58% | residual activity (DYRK2 (human); compound 1.0 µM): 91% | residual activity (DYRK2 (human); compound 10.0 µM): 91% | residual activity (EEF2K (human); compound 1.0 µM): 90% | residual activity (EEF2K (human); compound 10.0 µM): 56% | residual activity (EPHA2 (human); compound 1.0 µM): 99% | residual activity (EPHA2 (human); compound 10.0 µM): 78% | residual activity (EPHB3 (human); compound 1.0 µM): 94% | residual activity (EPHB3 (human); compound 10.0 µM): 74% | residual activity (ERBB4 (human); compound 1.0 µM): 71% | residual activity (ERBB4 (human); compound 10.0 µM): 67% | residual activity (GSK3B (human); compound 1.0 µM): 80% | residual activity (GSK3B (human); compound 10.0 µM): 73% | residual activity (HIPK3 (human); compound 1.0 µM): 129% | residual activity (HIPK3 (human); compound 10.0 µM): 79% | residual activity (INSR (human); compound 1.0 µM): 51% | residual activity (INSR (human); compound 10.0 µM): 33% | residual activity (IRAK4 (human); compound 1.0 µM): 124% | residual activity (IRAK4 (human); compound 10.0 µM): 70% | residual activity (MAP2K2 (human); compound 1.0 µM): 107% | residual activity (MAP2K2 (human); compound 10.0 µM): 77% | residual activity (MAP2K6 (human); compound 1.0 µM): 76% | residual activity (MAP2K6 (human); compound 10.0 µM): 83% | residual activity (MAP3K1 (human); compound 1.0 µM): 62% | residual activity (MAP3K1 (human); compound 10.0 µM): 50% | residual activity (MAP3K11 (human); compound 1.0 µM): 87% | residual activity (MAP3K11 (human); compound 10.0 µM): 44% | residual activity (MAP3K5 (human); compound 1.0 µM): 102% | residual activity (MAP3K5 (human); compound 10.0 µM): 83% | residual activity (MAP3K7 TAB1 (human); compound 1.0 µM): 73% | residual activity (MAP3K7 TAB1 (human); compound 10.0 µM): 39% | residual activity (MAP3K9 (human); compound 1.0 µM): 73% | residual activity (MAP3K9 (human); compound 10.0 µM): 66% | residual activity (MAPK12 (human); compound 1.0 µM): 94% | residual activity (MAPK12 (human); compound 10.0 µM): 72% | residual activity (MAPK9 (human); compound 1.0 µM): 83% | residual activity (MAPK9 (human); compound 10.0 µM): 71% | residual activity (MAPKAPK2 (human); compound 1.0 µM): 115% | residual activity (MAPKAPK2 (human); compound 10.0 µM): 95% | residual activity (MARK1 (human); compound 1.0 µM): 88% | residual activity (MARK1 (human); compound 10.0 µM): 95% | residual activity (MARK2 (human); compound 1.0 µM): 89% | residual activity (MARK2 (human); compound 10.0 µM): 96% | residual activity (MARK4 (human); compound 1.0 µM): 115% | residual activity (MARK4 (human); compound 10.0 µM): 102% | residual activity (MELK (human); compound 1.0 µM): 88% | residual activity (MELK (human); compound 10.0 µM): 29% | residual activity (MST4 (human); compound 1.0 µM): 113% | residual activity (MST4 (human); compound 10.0 µM): 102% | residual activity (NTRK1 (human); compound 1.0 µM): 68% | residual activity (NTRK1 (human); compound 10.0 µM): 20% | residual activity (NUAK1 (human); compound 1.0 µM): 53% | residual activity (NUAK1 (human); compound 10.0 µM): 24% | residual activity (PAK4 (human); compound 1.0 µM): 112% | residual activity (PAK4 (human); compound 10.0 µM): 69% | residual activity (PAK6 (human); compound 1.0 µM): 89% | residual activity (PAK6 (human); compound 10.0 µM): 83% | residual activity (PIM1 (human); compound 1.0 µM): 63% | residual activity (PIM1 (human); compound 10.0 µM): 18% | residual activity (PKN2 (human); compound 1.0 µM): 94% | residual activity (PKN2 (human); compound 10.0 µM): 53% | residual activity (PRKCA (human); compound 1.0 µM): 117% | residual activity (PRKCA (human); compound 10.0 µM): 55% | residual activity (PRKCZ (human); compound 1.0 µM): 88% | residual activity (PRKCZ (human); compound 10.0 µM): 76% | residual activity ([2]; compound 1.0 µM): 78% | residual activity ([2]; compound 10.0 µM): 65%
